The values below are quoted from earlier work in article PMC6547379 (The European respiratory journal, 2018).

The test system of the data set is CF patients. To be noted: ref [34].

With `Cc1c(-c2ccnn2C)cc(C(=O)NCc2ccc(S(C)(=O)=O)cn2)c(=O)n1-c1cccc(C(F)(F)F)c1` [AZD9668], the “effect on inflammation / lung function in CF patients” value is “no effect on inflammation or lung function”.
